In series [1] the target is T1, porcine pancreatic CEL (Sus scrofa, UniProt A0A286ZKB1).
T1 sequence (A0A286ZKB1 1-682): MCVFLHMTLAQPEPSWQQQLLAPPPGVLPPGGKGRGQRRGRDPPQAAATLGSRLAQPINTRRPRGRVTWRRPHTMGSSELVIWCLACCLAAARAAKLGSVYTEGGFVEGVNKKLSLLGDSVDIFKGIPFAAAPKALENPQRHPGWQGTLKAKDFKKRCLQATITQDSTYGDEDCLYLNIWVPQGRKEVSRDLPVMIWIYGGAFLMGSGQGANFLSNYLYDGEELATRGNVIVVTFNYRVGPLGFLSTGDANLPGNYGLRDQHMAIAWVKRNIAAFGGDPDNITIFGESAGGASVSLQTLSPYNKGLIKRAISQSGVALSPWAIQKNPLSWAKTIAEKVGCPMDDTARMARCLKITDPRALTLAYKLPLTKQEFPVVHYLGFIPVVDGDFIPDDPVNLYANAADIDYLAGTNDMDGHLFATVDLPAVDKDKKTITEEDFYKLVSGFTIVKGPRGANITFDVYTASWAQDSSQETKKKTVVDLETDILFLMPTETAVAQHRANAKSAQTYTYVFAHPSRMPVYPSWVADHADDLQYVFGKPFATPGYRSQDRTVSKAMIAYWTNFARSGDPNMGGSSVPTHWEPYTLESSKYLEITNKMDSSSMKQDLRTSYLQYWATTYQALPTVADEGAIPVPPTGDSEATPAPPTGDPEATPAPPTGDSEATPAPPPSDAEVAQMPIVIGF
Nature of the series: Hydrolysis of 4-MUBO by porcine bile-salt stimulated cholesterol esterase. Type of series: biochemical. As to conditions: 4-MUBO substrate; no bile salts added; Supplementary Fig. 1.

Series [2] deals with intracellular carboxylesterase activity in U373MG cells. To be noted: cited from earlier work.
The target of series [3] is T2, carboxylesterase activity in THP-1 macrophages (Homo sapiens, UniProt P23141).
T2 sequence (P23141 18-567): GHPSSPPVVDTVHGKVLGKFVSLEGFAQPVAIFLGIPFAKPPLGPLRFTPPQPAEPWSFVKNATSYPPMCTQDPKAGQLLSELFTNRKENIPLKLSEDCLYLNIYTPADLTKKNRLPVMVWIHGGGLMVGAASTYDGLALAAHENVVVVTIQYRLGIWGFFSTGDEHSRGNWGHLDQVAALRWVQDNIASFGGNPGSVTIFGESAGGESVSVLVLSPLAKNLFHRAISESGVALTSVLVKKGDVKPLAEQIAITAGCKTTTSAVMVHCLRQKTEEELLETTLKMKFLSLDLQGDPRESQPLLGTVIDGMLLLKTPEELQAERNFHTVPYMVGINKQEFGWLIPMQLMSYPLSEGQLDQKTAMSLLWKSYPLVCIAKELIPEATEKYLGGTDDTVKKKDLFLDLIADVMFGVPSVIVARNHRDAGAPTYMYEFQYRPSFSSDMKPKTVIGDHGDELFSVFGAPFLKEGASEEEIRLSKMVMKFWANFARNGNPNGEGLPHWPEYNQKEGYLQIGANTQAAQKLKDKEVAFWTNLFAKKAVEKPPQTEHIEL
Type of series: cell-based.

Series [4] concerns the target T3, CES1 (Homo sapiens, UniProt P23141).
T3 sequence (P23141 18-567): T2 sequence (P23141 18-567)
Nature of the series: Hydrolysis of 4-methylumbelliferyl oleate. Type of series: biochemical.

In series [5] the test system is THP-1 macrophages. Kind of series: Cholesteryl ester retention in cholesterol-loaded THP-1 macrophages. Format: cell-based, human. To be noted: for Total cellular cholesterol content of macrophages / Free cholesterol levels: 50 μM benzil or 10 μM paraoxon, 48-h efflux period; for Free cholesterol levels: vs vehicle.
Series [6] deals with T4, carboxylesterase activity (CES1) in intact THP-1 cells (Homo sapiens, UniProt P23141).
T4 sequence (P23141 18-567): T2 sequence (P23141 18-567)
Nature of the series: Carboxylesterase activity after 24-h treatment of intact THP-1 monocytes. Type of series: cell-based. To be noted: for Inhibition of carboxylesterase activity in intact THP-1 monocytes: 24 h treatment of intact cells, activity measured in lysates; for Relative effectiveness at inhibiting carboxylesterase activity in intact cells: 24 h treatment, comparison of the three oxons.

In series [7] the test system is THP-1 cells. Kind of series: Cell viability by Trypan Blue exclusion after oxon exposure. Format: cell-based, human. As to conditions: 24 h, concentrations of oxon used, data not shown.
Series [8] deals with T5, carboxylesterase activity of human THP-1 cell lysates (CES1) (Homo sapiens, UniProt P23141).
T5 sequence (P23141 18-567): T2 sequence (P23141 18-567)
Format: biochemical. To be noted: para-nitrophenyl valerate.

The conditions of series [9]: cited from earlier work.
In series [10] the test system is lipolytic activity of THP-1 cell lysates. Kind of series: Hydrolysis of 4-MUBO by THP-1 cell lysates. Type of series: biochemical, human. As to conditions: paraoxon up to 10 μM; Supplementary Fig. 2.
Series [11] relates to cholesteryl ester hydrolase activity in human THP1 cell lysate. Kind of series: Hydrolysis of cholesteryl [1-14C]oleate. To be noted: 10 μM paraoxon for 10 min before 75 μM cholesteryl [1-14C]oleate. Format: biochemical.
Series [12] has as its target T3, CES1. Format: binding.
In series [13] the test system is CES1 protein expression. Nature of the series: Western blot of CES1 protein in paraoxon-treated THP-1 cells. Type of series: cell-based, human. As to conditions: 10 μM paraoxon 24 h. (A western blot detects proteins with antibodies after separation by electrophoresis.)

Like-named read-outs stand apart in the source and are kept apart here. Bounds are passed on as bounds.

With `O=C(C(=O)c1ccccc1)c1ccccc1` [Benzil, diphenylethane-1,2-dione], the “Inhibition of CEL” value in series [1] is reported as “does not inhibit”. Besides, the “Inhibition of intracellular carboxylesterase activity” value in [2] (U373MG cells transfected with plasmids containing mammalian CES cDNA) was “effective inhibitor”. In series [2] (U373MG cells), the Cell permeability result is “cell-permeable” and the Cytotoxicity entry is “non-cytotoxic”. Besides, the “Carboxylesterase activity in cell lysate from treated macrophages” value in [3] is given as “not significantly inhibited”. Besides, the “Inhibition of lipase activity of CES1” value in [4] is listed as “can be inhibited”. In addition, in [5] (50 μM benzil during 48-h cholesterol efflux period), the “Increase in intracellular cholesteryl ester levels” value is given as more than 3 fold. Besides, in [5], the “Total cellular cholesterol content of macrophages” value is given as “did not significantly change” and the Free cholesterol levels entry was “similar”.

Take `CCOP(=O)(OCC)Oc1nc(Cl)c(Cl)cc1Cl` [Chlorpyrifos oxon]: in series [6], the “Inhibition of carboxylesterase activity in intact THP-1 monocytes” value (“Inhibition … in intact THP-1 monocytes” for short) is given as “inhibited by each oxon in a dose-dependent manner” and the “Relative effectiveness at inhibiting carboxylesterase activity in intact cells” value was “least effective”. The Overall cell viability entry in [7] is “did not affect overall cell viability”. Also, the “Inhibition of carboxylesterase activity in cell lysates” value (“Inhibition … in cell lysates” for short) in series [8] is “inhibited carboxylesterase activity in cell lysates in a concentration-dependent manner”. The “Lipophilicity rank among the three oxons” value in series [9] is “most lipophilic”.

For the molecule `COP(=O)(OC)Oc1ccc([N+](=O)[O-])cc1` [Methyl paraoxon], in [6], the “Inhibition … in intact THP-1 monocytes” value is listed as “inhibited by each oxon in a dose-dependent manner”. Further, the Overall cell viability entry in series [7] is listed as “did not affect overall cell viability”. The “Inhibition … in cell lysates” value in series [8] is given as “inhibited carboxylesterase activity in cell lysates in a concentration-dependent manner”. In addition, in series [9], the “Lipophilicity rank among the three oxons” value was “least lipophilic”.

Take `CCOP(=O)(OCC)Oc1ccc([N+](=O)[O-])cc1` [Paraoxon]: in series [6], the “Inhibition … in intact THP-1 monocytes” value is “inhibited by each oxon in a dose-dependent manner” and the “Relative effectiveness at inhibiting carboxylesterase activity in intact cells” value is “most effective”. Besides, in series [6] (intact cells, 10 μM paraoxon 24 h, α,β-naphthyl acetate stain), the “CES1 activity on native PAGE gels” value is “markedly inhibited”. For the same molecule, the Overall cell viability result in series [7] is “did not affect overall cell viability”. Further, the “Inhibition of CEL” value in series [1] was “very sensitive”. Also, the “Inhibition of lipolytic activity of THP-1 cell lysates toward 4-MUBO” value in series [10] is recorded as “no significant inhibiton of lipase activity”. The “Inhibition … in cell lysates” value in [8] is given as “inhibited carboxylesterase activity in cell lysates in a concentration-dependent manner”. In addition, the “Inhibition of carboxylesterase activity in cell lysate from treated macrophages” value in [3] (10 μM paraoxon, compared to control cells, p≤0.05) came to 81%. Also, the “Reduction of CEH activity of THP1 cell lysates” value in series [11] was 23%. Moreover, in series [4] (4-MUBO substrate, Supplementary Fig. 1), the “Inhibition of lipase activity of CES1” value is listed as “can be inhibited”. Moreover, the “Intracellular cholesteryl ester retention” value in series [5] (10 μM paraoxon during 48-h cholesterol efflux) was “significant increase”. Moreover, in [5], the “Total cellular cholesterol content of macrophages” value is given as “did not significantly change” and the Free cholesterol levels entry is listed as “modest but significant reduction”. Besides, the “Paraoxon concentrations that completely inhibited FP-biotin labeling of CES1” value in [12] (lysate 1 mg/ml pre-treated 15 min at 37°C, then 2 μM FP-biotin 1 h) was more than 1 nM. Also, in series [12] (pre-treatment with paraoxon at 0.01 nM), the “Effect on FP-biotin labeling of CES1” value is recorded as “did not prevent labeling”. In addition, the “Amount of CES1 protein compared to control (vehicle) treated cells” value in [13] is recorded as “no difference”.

The values above are taken from PMC2574903 (Biochimica et biophysica acta, 2008).
